Data taken from patent US8227207B2, “Bioactive peptides derived from the proteins of egg white by means of enzymatic hydrolysis” (Consejo Superior de Investigaciones Cientifcas, priority 2004, dated 2012).
“Also recorded” adds a separate entry of the source. Residues, ends and D or L forms follow the SMILES beside them.

Assays:
Wistar-Kyoto rats (WKY) [1] = assay: Effect on systolic arterial pressure (SAP) in normotense Wistar-Kyoto rats; type: in vivo, rat; settings: intragastric probe, highest dose used: SEQ. ID. No 6 and 3 2 mg/kg, SEQ. ID. No 2 4 mg/kg, Captopril 50 mg/kg
Procedure: (§1) The effect is studied of various identified peptides and of some products containing them (for example egg white hydrolysed with pepsin for 3 hours and the fraction of it less than 3000 Da) on the arterial pressure of spontaneously hypertensive rats (SHR) and Wistar-Kyoto rats (WKY) which are the normotense controls for the SHR. This study is conducted with SHR (10) and WKY of 17-24 weeks old and weight between 300 and 350 g, coming from Charles River Laboratories […]. The rats are kept in cages of five by five and maintained at a stable temperature of 25° C. with light-dark cycles of 12 hours, ingesting freely available water and food. In order to carry out the measurement of systolic arterial pressure (SAP) “tail cuff” equipment is used (Le5001, Letica) which automatically provides a digital value of the SAP and records and facilitates the cardiac frequency of the animals. Various measurements are made and the average of all of them is obtained in order to achieve a reliable value of the SAP. Before positioning the cuff and transducer in the tail of the rats, the rats are exposed to a temperature of close to 30° C. in order to facilitate dilation of the caudal artery. Also, in order to ensure the reliability of the measurement, the animals are made to get used to the procedure for two weeks prior to conducting each assay in question. The administration of the products to be assayed is done by means of an intragastric probe in a time margin of between 9 and 10 o'clock in the morning. The SHR used for the study had SAP values of between 230 and 280 mm Hg. The WKY used for the study at that moment had SAP values of between 160 and 200 mm Hg. Measurements of the SAP were taken from the animals periodically, every 2 hours, up to 8 hours post-administration of the products to be assayed; in addition, a SAP measurement was taken 24 hours after the administration of those products. As negative control (in order to establish the circadian variation of the SAP in probed rats) the measurements of the SAP obtained in rats which had been administered 1 ml of water by means of intragastric probe were used. […] This dose of Captopril was administered to each rat in a volume of 1 ml. In order to establish the effect of the unhydrolysed egg white on the arterial pressure of the animals, similar assays to those described above were conducted, in which the animals were treated by the same procedure with 200 mg/kg of previously freeze-dried egg white (reference). The results obtained are grouped and the mean±the standard error of measurement (SEM) is obtained for a minimum of 9 homogenous assays. The data of the treated animals are always compared with the data deemed to be a negative control. […]

[2] = tested on: spontaneously hypertensive rats (SHR); assay: Anti-hypertensive activity, systolic arterial pressure (SAP), in spontaneously hypertensive rats; type: in vivo, rat; settings: oral, intragastric probe, Captopril 50 mg/kg, SEQ. ID. No 6 and 3 0.5-2 mg/kg, SEQ. ID. No 2 1-4 mg/kg
Procedure: as §1

[3] = tested on: spontaneously hypertensive rats (SHR); assay: Antihypertensive activity: systolic arterial pressure (tail cuff) in spontaneously hypertensive rats; type: in vivo, rat
Procedure: (§2) The effect is studied of various identified peptides and of some products containing them (for example egg white hydrolysed with pepsin for 3 hours and the fraction of it less than 3000 Da) on the arterial pressure of spontaneously hypertensive rats (SHR) and Wistar-Kyoto rats (WKY) which are the normotense controls for the SHR.
(§3) This study is conducted with SHR (10) and WKY of 17-24 weeks old and weight between 300 and 350 g, coming from Charles River Laboratories España, S. A. The rats are kept in cages of five by five and maintained at a stable temperature of 25° C. with light-dark cycles of 12 hours, ingesting freely available water and food. In order to carry out the measurement of systolic arterial pressure (SAP) “tail cuff” equipment is used (Le5001, Letica) which automatically provides a digital value of the SAP and records and facilitates the cardiac frequency of the animals. Various measurements are made and the average of all of them is obtained in order to achieve a reliable value of the SAP. Before positioning the cuff and transducer in the tail of the rats, the rats are exposed to a temperature of close to 30° C. in order to facilitate dilation of the caudal artery. Also, in order to ensure the reliability of the measurement, the animals are made to get used to the procedure for two weeks prior to conducting each assay in question.
(§4) The administration of the products to be assayed is done by means of an intragastric probe in a time margin of between 9 and 10 o'clock in the morning. The SHR used for the study had SAP values of between 230 and 280 mm Hg. The WKY used for the study at that moment had SAP values of between 160 and 200 mm Hg. Measurements of the SAP were taken from the animals periodically, every 2 hours, up to 8 hours post-administration of the products to be assayed; in addition, a SAP measurement was taken 24 hours after the administration of those products. As negative control (in order to establish the circadian variation of the SAP in probed rats) the measurements of the SAP obtained in rats which had been administered 1 ml of water by means of intragastric probe were used. As positive control, the measurements of the SAP obtained in rats which had been administered 50 mg/kg of Captopril (prototype ACEI drug) by means of intragastric probe were used. This dose of Captopril was administered to each rat in a volume of 1 ml. In order to establish the effect of the unhydrolysed egg white on the arterial pressure of the animals, similar assays to those described above were conducted, in which the animals were treated by the same procedure with 200 mg/kg of previously freeze-dried egg white (reference).
The results obtained are grouped and the mean±the standard error of measurement (SEM) is obtained for a minimum of 9 homogenous assays. The data of the treated animals are always compared with the data deemed to be a negative control. In order to compare them and obtain the statistical significance, Student's t-test for unpaired data is used and the difference for values of p<0.05 is considered significant.

Wistar-Kyoto rats (WKY) [4] = assay: Systolic arterial pressure (tail cuff) in normotense Wistar-Kyoto rats; type: in vivo, rat; settings: highest dose used, intragastric probe
Procedure: as §2, §3, §4
The results obtained are grouped and the mean±the standard error of measurement (SEM) is obtained for a minimum of 9 homogenous assays. […]

[5] = tested on: spontaneously hypertensive rats (SHR); settings: ovokinin oral 100 mg/kg, ovokinin (2-7) 10 mg/kg; cited from earlier work
[6] = tested on: spontaneously hypertensive rats (SHR); settings: literature, cited from earlier work; for anti-hypertensive activity relative to ovokinin (2-7): following administration to SHRs
[7] = tested on: angiotensin converting enzyme (ACE); settings: result in words, literature; cited from earlier work
[8] = tested on: angiotensin converting enzyme (ACE) (EC 3.4.15.1, Sigma); assay: In vitro inhibitory activity of the angiotensin converting enzyme (ACEI activity); type: biochemical; settings: result in words
Procedure: Measurement of the Inhibitory Activity of the Angiotensin Converting Enzyme (ACEI Activity)
The inhibitory activity of the angiotensin converting enzyme (ACE) is measured in vitro according to the method of D. W. Cushman and H. S. Cheung (Spectrophotometric assay and properties of the angiotensin-converting enzyme of rabbit lung. Biochemical Pharmacology, 1971, 20: 1637-1648), later on modified by Y. K. Kim, S. Yoon, D. Y. Yu, B. Lönnerdal and B. H. Cheung (Novel angiotensin-I-converting enzyme inhibitory peptides derived from recombinant human αs1-casein expressed in Escherichia coli, Journal of Dairy Research 1999, 66, 431-439).
The substrate hippuryl histidyl leucine (HHL, Sigma Chemicals Co., St. Louis, Mo., USA) is dissolved in a 0.1 M borate buffer with 0.3 M NaCl pH 8.3 to obtain a final concentration of 5 mM. To 100 μl of substrate are added 40 μl of each of the samples whose ACEI activity it is wished to determine. The ACE enzyme (EC 3.4.15.1, Sigma) is added, dissolved in 50% glycerol and diluted 1/10 in bidistilled water at the moment of conducting the assay. The reaction is carried out at 37° C. for 30 minutes in a water-bath. The enzyme is deactivated by lowering the pH with 150 μl of 1 N HCl. The hippuric acid formed is extracted with 1000 μl of ethyl acetate. Following vortex stirring for 20 seconds, it is centrifuged at 4000 rpm for 10 minutes at room temperature. 750 μl of the organic phase are taken and evaporated by heating at 95° C. for 10 minutes. The hippuric acid residue is redissolved in 800 μl of bidistilled water and, following stirring for 20 seconds, the absorbency at 228 nm is measured in a Dur-70 spectrophotometer from Beckman Instruments, Inc., Fullerton, USA.
In order to calculate the percentage of ACEI activity, the following formula is used
The blank is used for correcting the background absorbency. This contains substrate, enzyme and 20 μl of bidistilled water in place of the sample, and the reaction is halted at zero time. The control implies a hundred percent of the enzymatic action on the substrate in the absence of inhibitors and contains 20 μl of water in place of the sample and is incubated the same time as the sample.
The results are presented as the IC50 (μM or μg/ml) or concentration at which 50% of the enzyme's activity is inhibited. The concentration of protein is determined by means of the bicinchonomic acid (BCA) assay (Pierce, Rockford, Ill., USA) using bovine seroalbumin as reference.

For C[C@H](CS)C(=O)N1CCC[C@H]1C(=O)O [Captopril, reference compound], the “effect on SAP” value (Wistar-Kyoto rats (WKY) [1]) was “none of these compounds modifies the SAP of WKY rats”, the “anti-hypertensive activity / drop in SAP” value [2] was “pronounced drop in SAP in the SHR” and the “time of maximum drop in SAP after administration” value ([3]; intragastric probe) was 6 h. For the same molecule, the “drop in systolic arterial pressure (SAP) / anti-hypertensive activity (in words)” value ([3]; single administration by intragastric probe) was “pronounced drop in SAP” and the “change in SAP in normotense rats (in words)” value (Wistar-Kyoto rats (WKY) [4]) was “none of these compounds modifies the SAP”.

In the case of CC(C)C[C@H](N)C(=O)N[C@@H](Cc1c[nH]c2ccccc12)C(=O)O [LW], the “anti-hypertensive / vasodilatory activity in SHR (in words)” value [5] is given as “displayed anti-hypertensive activity” and the anti-hypertensive activity ([6]; SHR, ovokinin orally 100 mg/kg) is given as “displayed anti-hypertensive activity in spontaneously hypertensive rats (SHR)”.

For N=C(N)NCCC[C@H](N)C(=O)N1CCC[C@H]1C(=O)N[C@@H](Cc1ccccc1)C(=O)N[C@@H](Cc1cnc[nH]1)C(=O)N1CCC[C@H]1C(=O)N[C@@H](Cc1ccccc1)C(=O)O [RPFHPF] (H-RPFHPF-OH), the ACEI activity [7] is listed as “neither ovokinin (2-7), nor its RPFHPF (SEQ. ID. NO: 10) or RPLKPW (SEQ. ID. NO: 11) derivatives possessed ACEI activity”, the minimum effective dose ([6]; SHR) is listed as 1 mg/kg and the “anti-hypertensive activity relative to ovokinin (2-7)” value [6] is listed as 10 times.

In the case of CC(C)C[C@H](NC(=O)[C@@H]1CCCN1C(=O)[C@@H](N)CCCNC(=N)N)C(=O)N[C@@H](CCCCN)C(=O)N1CCC[C@H]1C(=O)N[C@@H](Cc1c[nH]c2ccccc12)C(=O)O [RPLKPW] (H-RPLKPW-OH), the ACEI activity [7] is given as “neither ovokinin (2-7), nor its RPFHPF (SEQ. ID. NO: 10) or RPLKPW (SEQ. ID. NO: 11) derivatives possessed ACEI activity”, the minimum effective dose ([6]; SHR) is given as 0.1 mg/kg and the “anti-hypertensive activity relative to ovokinin (2-7)” value [6] is given as 100 times.

With CC[C@H](C)[C@H](N)C(=O)N[C@H](C(=O)N[C@@H](Cc1ccccc1)C(=O)O)C(C)C [SEQ. ID. No 2, IVF] the “effect on SAP” value (Wistar-Kyoto rats (WKY) [1]) was “none of these compounds modifies the SAP of WKY rats”, the “anti-hypertensive activity / drop in SAP” value [2] was “possess anti-hypertensive activity in spontaneously hypertensive rats (SHR); also recorded: display anti-hypertensive activity in rats” and the “ACEI activity in vitro” value [8] was “potent ACEI activity in vitro”.

For CC(C)C[C@H](NC(=O)[C@H](Cc1ccccc1)NC(=O)[C@@H]1CCCN1C(=O)[C@H](Cc1cnc[nH]1)NC(=O)[C@H](CC(=O)O)NC(=O)[C@H](C)NC(=O)[C@@H](N)CCCNC(=N)N)C(=O)O [SEQ. ID. No 3, RADHPFL] (H-RADHPFL-OH), the “effect on SAP” value (Wistar-Kyoto rats (WKY) [1]) was “none of these compounds modifies the SAP of WKY rats”, the “anti-hypertensive activity / drop in SAP” value [2] was “possess anti-hypertensive activity in spontaneously hypertensive rats (SHR); also recorded: display anti-hypertensive activity in rats” and the “ACEI activity in vitro” value [8] was “potent ACEI activity in vitro”.

With CC[C@H](C)[C@H](NC(=O)[C@@H]1CCCN1C(=O)[C@H](Cc1ccc(O)cc1)NC(=O)[C@H](CCCNC(=N)N)NC(=O)[C@H](CCC(=O)O)NC(=O)[C@H](CCC(=O)O)NC(=O)[C@H](C)NC(=O)[C@@H](N)Cc1ccc(O)cc1)C(=O)N[C@@H](CC(C)C)C(=O)O [SEQ. ID. No 6] (H-YAEERYPIL-OH) the “effect on SAP” value (Wistar-Kyoto rats (WKY) [1]) was “none of these compounds modifies the SAP of WKY rats”, the “anti-hypertensive activity / drop in SAP” value [2] was “possess anti-hypertensive activity in spontaneously hypertensive rats (SHR); also recorded: display anti-hypertensive activity in rats” and the “ACEI activity in vitro” value [8] was “potent ACEI activity in vitro”.

For C[C@H](NC(=O)[C@@H](N)CCCNC(=N)N)C(=O)N[C@@H](CC(=O)O)C(=O)N[C@@H](Cc1cnc[nH]1)C(=O)N1CCC[C@H]1C(=O)N[C@@H](Cc1ccccc1)C(=O)O [ovokinin (2-7), RADHPF] (H-RADHPF-OH), the ACEI activity [7] is given as “neither ovokinin (2-7), nor its RPFHPF (SEQ. ID. NO: 10) or RPLKPW (SEQ. ID. NO: 11) derivatives possessed ACEI activity”, the “anti-hypertensive / vasodilatory activity in SHR (in words)” value [5] is given as “exerted a potent vasodilatory action” and the vasodilatory action ([6]; SHR, doses of 10 mg/kg) is given as “potent vasodilatory action in SHR”.
